According to patent US10632106B2, “Methods of cancer treatment with 2-(1′H-Indole-3′-carbonyl)-thiazole-4-carboxylic acid methyl ester” (Ariagen, Inc., priority 2009, dated 2020):

Legend:
[1] = tested on: MFC (mouse stomach cancer) homografts; assay: MFC homograft (syngeneic) growth inhibition in 615 mice; type: in vivo; settings: ITE 200-300 mg/kg i.p. once daily
Procedure: (§1) All the procedures related to animal handling, care, and the treatment in the study were performed following guidelines of KeyGen Biotechn Co., Ltd. (Nanjing, China), a contract research organization we hired, based on the guidance of the Association for Assessment and Accreditation of Laboratory Animal Care (AAALAC). Animals were checked for any effects of tumor growth and drug treatment on normal behavior such as mobility, food and water consumption, body weight gain/loss (bodyweights were measured every two days), eye/hair matting, and any other abnormal effect. Death and observed clinical signs were recorded. Individual animals with a tumor volume exceeding 3,000 mm^3 or animals of a group with a mean tumor volume exceeding 2,000 mm^3 were euthanized. In addition, animals showing signs of severe distress and/or pain or losing the capability of accessing adequate food or water were humanely sacrificed.
(§2) Cell lines HCT116, Siha, MFC were cultured in DMEM medium (high glucose) supplemented with 10% fetal bovine serum (FBS), SW116 and T24 in RPMI-1640 medium with 10% FBS, M14 and A375 in DMEM medium (high glucose) with 10% calf serum (CS), SGC7901 and Ketr-3 in RPMI-1640 medium with 10% CS, and CFPAC-1 in IMDM medium with 10% FBS. All of the cells were cultured, in the presence of 100 U/ml penicillin and 100 μg/ml streptomycin, at 37° C. in an atmosphere of 5% CO2 in air. […] The cells growing in an exponential phase were harvested and counted for tumor inoculation. Cell lines 5180 and U14 were maintained in ascites (peritoneal cavity fluid) of mice and were harvested and counted for tumor inoculation. […]
(§3) Tumor volume was measured every two days in two dimensions using a caliper and the volume was calculated with a formula of: V=0.5 a×b^2, where a and b are the long and short diameter (in mm) of a tumor, respectively. […] The TGD was calculated as: TGD=T−C, where T was the time (in days) required for tumors in a drug treated group to reach a predetermined mean tumor volume and C the time (in days) in the control group to reach the same volume. […]

[2] = tested on: Ketr-3 (human kidney cancer) xenografts; assay: Ketr-3 xenograft growth inhibition; type: in vivo; settings: ITE 100-200 mg/kg i.p. once daily
Procedure: as §1, §2, §3

[3] = end of therapy relative to beginning

COC(=O)c1csc(C(=O)c2c[nH]c3ccccc23)n1 [ITE, 2-(1′H-indole-3′-carbonyl)-thiazole-4-carboxylic acid methyl ester]
TGD ([1]; TGD at Vol. 2,000): 9 days | TGI (%) ([1]; TGI at day 10, TGI=(1−ΔT/ΔC)×100%): 70% | Weight Loss [1, 3]: 16% | TGD ([2]; TGD at Vol. 500): 9 days | TGI (%) ([2]; TGI at day 28, TGI=(1−ΔT/ΔC)×100%): 74% | Weight Loss [2, 3]: 13%
